Assay results reported in ChEMBL document CHEMBL1159078, “Bicyclic peptides as potent inhibitors of histone deacetylases: optimization of alkyl loop length” (Bioorg Med Chem Lett, 2010).
Where a SMILES comes first, the peptide text is derived from it. [ ]: non-standard residue; d: D form. The star is where a group is joined. Asu = N[C@@H](CCCCCC(=O)O)C(=O)O; dAhp(2) = CCCCC[C@@H](N)C(=O)O; Ahp(2) = CCCCC[C@H](N)C(=O)O; NHOH = ON*

Legend:
[1] = molecular target: Histone deacetylase 1 (Homo sapiens, UniProt Q13547); test: Inhibition of HDAC1
Sequence of Histone deacetylase 1 (Q13547 whole entry): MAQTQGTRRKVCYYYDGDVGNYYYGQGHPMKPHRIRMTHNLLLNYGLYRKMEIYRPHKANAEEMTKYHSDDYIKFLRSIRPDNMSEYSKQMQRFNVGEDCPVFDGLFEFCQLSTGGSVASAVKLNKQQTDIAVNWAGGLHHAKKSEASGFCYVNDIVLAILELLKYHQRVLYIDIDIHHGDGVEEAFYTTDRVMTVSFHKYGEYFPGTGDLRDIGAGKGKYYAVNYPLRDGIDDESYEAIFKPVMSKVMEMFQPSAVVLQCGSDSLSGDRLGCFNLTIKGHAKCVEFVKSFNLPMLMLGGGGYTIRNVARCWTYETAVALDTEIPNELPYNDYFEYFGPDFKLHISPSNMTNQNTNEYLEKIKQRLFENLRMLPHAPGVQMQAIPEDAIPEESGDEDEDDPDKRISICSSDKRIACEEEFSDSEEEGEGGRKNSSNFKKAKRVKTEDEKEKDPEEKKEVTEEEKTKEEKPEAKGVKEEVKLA

[2] = molecular target: T1, Histone deacetylase 4 (Homo sapiens, UniProt P56524); test: Inhibition of HDAC4
T1 sequence (P56524 whole entry): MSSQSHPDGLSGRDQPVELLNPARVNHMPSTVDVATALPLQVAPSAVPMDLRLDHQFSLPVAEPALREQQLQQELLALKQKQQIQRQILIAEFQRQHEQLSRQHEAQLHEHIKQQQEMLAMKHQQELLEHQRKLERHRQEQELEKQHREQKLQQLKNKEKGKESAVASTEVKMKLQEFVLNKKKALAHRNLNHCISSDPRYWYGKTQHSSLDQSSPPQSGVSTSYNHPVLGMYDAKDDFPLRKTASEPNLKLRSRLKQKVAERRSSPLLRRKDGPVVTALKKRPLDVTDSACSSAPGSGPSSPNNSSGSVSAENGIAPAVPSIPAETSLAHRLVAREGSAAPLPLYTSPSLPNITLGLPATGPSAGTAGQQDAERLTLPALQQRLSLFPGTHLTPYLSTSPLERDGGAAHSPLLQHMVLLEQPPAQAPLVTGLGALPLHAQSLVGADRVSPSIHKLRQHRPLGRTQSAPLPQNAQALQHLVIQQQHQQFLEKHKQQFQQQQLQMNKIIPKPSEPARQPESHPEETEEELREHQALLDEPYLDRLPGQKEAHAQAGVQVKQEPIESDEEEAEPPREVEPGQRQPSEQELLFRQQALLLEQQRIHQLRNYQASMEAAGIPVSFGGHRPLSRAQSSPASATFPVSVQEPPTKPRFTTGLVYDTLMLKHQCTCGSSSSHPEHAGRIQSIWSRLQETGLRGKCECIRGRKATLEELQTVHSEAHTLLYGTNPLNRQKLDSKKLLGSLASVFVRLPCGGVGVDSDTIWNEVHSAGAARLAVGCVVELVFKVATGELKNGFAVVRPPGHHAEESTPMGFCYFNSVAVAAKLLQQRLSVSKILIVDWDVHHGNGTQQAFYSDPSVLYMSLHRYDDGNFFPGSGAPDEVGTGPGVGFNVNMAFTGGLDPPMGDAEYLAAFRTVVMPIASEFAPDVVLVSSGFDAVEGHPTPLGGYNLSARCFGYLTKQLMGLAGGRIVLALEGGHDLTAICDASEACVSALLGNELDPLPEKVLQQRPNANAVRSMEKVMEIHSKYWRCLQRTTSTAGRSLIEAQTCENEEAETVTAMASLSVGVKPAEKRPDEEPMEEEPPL

[3] = molecular target: T2, Protein deacetylase HDAC6 (Homo sapiens, UniProt Q9UBN7); test: Inhibition of HDAC6
T2 sequence (Q9UBN7 whole entry): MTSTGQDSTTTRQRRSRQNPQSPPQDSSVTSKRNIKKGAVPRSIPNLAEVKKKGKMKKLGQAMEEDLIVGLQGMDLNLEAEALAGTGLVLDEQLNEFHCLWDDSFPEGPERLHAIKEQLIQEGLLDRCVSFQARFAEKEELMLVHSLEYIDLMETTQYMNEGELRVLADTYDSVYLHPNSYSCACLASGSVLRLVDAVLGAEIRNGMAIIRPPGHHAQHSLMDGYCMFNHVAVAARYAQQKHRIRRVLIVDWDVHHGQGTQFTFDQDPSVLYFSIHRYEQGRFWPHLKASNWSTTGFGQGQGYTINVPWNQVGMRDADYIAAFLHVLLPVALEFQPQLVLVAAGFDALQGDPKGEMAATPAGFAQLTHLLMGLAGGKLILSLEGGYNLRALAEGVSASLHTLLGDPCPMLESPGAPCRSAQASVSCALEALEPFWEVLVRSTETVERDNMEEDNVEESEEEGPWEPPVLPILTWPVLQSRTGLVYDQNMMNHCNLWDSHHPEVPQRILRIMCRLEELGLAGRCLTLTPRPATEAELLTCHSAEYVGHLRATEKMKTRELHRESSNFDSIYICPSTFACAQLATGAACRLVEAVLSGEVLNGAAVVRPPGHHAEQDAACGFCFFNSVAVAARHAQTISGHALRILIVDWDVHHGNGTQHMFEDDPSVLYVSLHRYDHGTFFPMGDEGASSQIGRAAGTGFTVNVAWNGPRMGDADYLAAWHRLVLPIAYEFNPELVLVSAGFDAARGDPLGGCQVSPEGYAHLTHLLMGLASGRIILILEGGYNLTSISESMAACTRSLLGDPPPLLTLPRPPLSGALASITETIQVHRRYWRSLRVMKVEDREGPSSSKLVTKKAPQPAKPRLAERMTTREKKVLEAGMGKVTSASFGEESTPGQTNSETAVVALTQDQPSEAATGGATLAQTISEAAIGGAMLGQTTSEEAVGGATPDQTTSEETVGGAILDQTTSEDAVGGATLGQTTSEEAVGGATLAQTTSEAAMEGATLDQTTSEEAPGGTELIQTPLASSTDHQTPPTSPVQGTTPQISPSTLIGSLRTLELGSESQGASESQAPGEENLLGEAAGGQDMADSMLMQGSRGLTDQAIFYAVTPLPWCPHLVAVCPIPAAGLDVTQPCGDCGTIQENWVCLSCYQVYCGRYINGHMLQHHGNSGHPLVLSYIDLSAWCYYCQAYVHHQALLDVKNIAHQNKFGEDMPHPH

[4] = Selectivity ratio, IC50 for HDAC6 to IC50 for HDAC4
[5] = molecular target: T1, Histone deacetylase 4

O=C(CCCCC[C@@H]1NC(=O)[C@H]2CCCN2C(=O)[C@@H]2CCCCCCCCCC[C@@H](NC1=O)C(=O)N2)NO showed an IC50 [1] of 9.1 nM, an IC50 [2] of 5.5 nM and an IC50 [3] of 410 nM. It also gave a Ratio IC50 [4] of 75 and an EC1000 [5] of 7.2 nM.
Work on CCCCC[C@@H]1NC(=O)[C@@H](CCCCC)NC(=O)[C@H](CCCCCC(=O)NO)NC(=O)[C@H]2CCCN2C1=O (cyclo([Ahp(2)][dP][Asu](NHOH)[dAhp(2)])) yielded an IC50 [1] of 25 nM, an IC50 [2] of 12 nM and an IC50 [3] of 340 nM. It also gave an EC1000 [5] of 13 nM.
Compound O=C(CCCCC[C@@H]1NC(=O)[C@H]2CCCN2C(=O)[C@@H]2CCCCCCCCCCCC[C@@H](NC1=O)C(=O)N2)NO has an IC50 [1] of 13 nM, an IC50 [2] of 5 nM and an IC50 [3] of 240 nM. For the same compound, the EC1000 [5] was 2 nM.
Work on O=C(CCCCC[C@@H]1NC(=O)[C@H]2CCCN2C(=O)[C@@H]2CCCCCCCCCCC[C@@H](NC1=O)C(=O)N2)NO yielded an IC50 [1] of 11 nM, an IC50 [2] of 4.5 nM and an IC50 [3] of 280 nM. It also gave an EC1000 [5] of 2.6 nM.
In the case of O=C(CCCCC[C@@H]1NC(=O)[C@H]2CCCN2C(=O)[C@@H]2CCCCCCCCC[C@@H](NC1=O)C(=O)N2)NO, the IC50 [1] is reported as 9.1 nM, the IC50 [2] is reported as 5.4 nM and the IC50 [3] is reported as 330 nM. For the same compound, the EC1000 [5] was 92 nM.
For CC(/C=C/C(=O)NO)=C\[C@@H](C)C(=O)c1ccc(N(C)C)cc1, the EC1000 [5] was 20 nM.
